Among the data in US11725007B2, “Meta tyrosine derivatives as rho-kinase inhibitors” (Chiesi Farmaceutici S.p.A., priority 2017, dated 2023) are Ki values, retold here.

pKi: −log10 of the molar value. Bounds are passed on as bounds.

The target in experiment [1] is Rho kinase 2 (ROCK2) (Homo sapiens, UniProt O75116). Description: In vitro Rho kinase inhibitory activity assay (ADP-Glo), ROCK2. In kind it is biochemical. To be noted: 10 μM ATP, Myelin Basic Protein substrate, 25° C., Ki by Cheng-Prusoff. As to the method:
(§1) The effectiveness of compounds of the invention to inhibit Rho kinase activity can be determined in a 10 μl assay containing 40 mM Tris pH7.5, 20 mM MgCl2 0.1 mg/ml BSA, 50 μM DTT and 2.5 μM peptide substrate (Myelin Basic Protein) using an ADP-Glo kit (Promega). Compounds were dissolved in DMSO such that the final concentration of DMSO was 1% in the assay. All reactions/incubations are performed at 25° C. Compound (2 ul) and either Rho kinase 1 or 2 (4 μl) were mixed and incubated for 30 mins. Reactions were initiated by addition of ATP (4 μl) such that the final concentration of ATP in the assay was 10 μM. After a 1 hour incubation 10 μl of ADP-Glo Reagent was added and after a further 45 minute incubation 20 ul of Kinase Detection Buffer was added and the mixture incubated for a further 30 minutes. The luminescent signal was measured on a luminometer. […] Compounds were tested in dose-response format and the inhibition of kinase activity was calculated at each concentration of compound. To determine the IC50 (concentration of compound required to inhibit 50% of the enzyme activity) data were fit to a plot of % inhibition vs Log10 compound concentration using a sigmoidal fit with a variable slope and fixing the maximum to 100% and the minimum to 0%. To determine the Ki values the Cheng-Prusoff equation was utilized (Ki=IC50/(1+[S]/Km)

Experiment [2] concerns the target Rho kinase 1 (ROCK1) (Homo sapiens, UniProt Q13464). Kind of experiment: In vitro Rho kinase inhibitory activity assay (ADP-Glo), ROCK1. In kind it is biochemical. To be noted: 10 μM ATP, Myelin Basic Protein substrate, 25° C., Ki by Cheng-Prusoff. As to the method:
as §1

Rho kinase 1 (ROCK1), sequence (Q13464 whole entry): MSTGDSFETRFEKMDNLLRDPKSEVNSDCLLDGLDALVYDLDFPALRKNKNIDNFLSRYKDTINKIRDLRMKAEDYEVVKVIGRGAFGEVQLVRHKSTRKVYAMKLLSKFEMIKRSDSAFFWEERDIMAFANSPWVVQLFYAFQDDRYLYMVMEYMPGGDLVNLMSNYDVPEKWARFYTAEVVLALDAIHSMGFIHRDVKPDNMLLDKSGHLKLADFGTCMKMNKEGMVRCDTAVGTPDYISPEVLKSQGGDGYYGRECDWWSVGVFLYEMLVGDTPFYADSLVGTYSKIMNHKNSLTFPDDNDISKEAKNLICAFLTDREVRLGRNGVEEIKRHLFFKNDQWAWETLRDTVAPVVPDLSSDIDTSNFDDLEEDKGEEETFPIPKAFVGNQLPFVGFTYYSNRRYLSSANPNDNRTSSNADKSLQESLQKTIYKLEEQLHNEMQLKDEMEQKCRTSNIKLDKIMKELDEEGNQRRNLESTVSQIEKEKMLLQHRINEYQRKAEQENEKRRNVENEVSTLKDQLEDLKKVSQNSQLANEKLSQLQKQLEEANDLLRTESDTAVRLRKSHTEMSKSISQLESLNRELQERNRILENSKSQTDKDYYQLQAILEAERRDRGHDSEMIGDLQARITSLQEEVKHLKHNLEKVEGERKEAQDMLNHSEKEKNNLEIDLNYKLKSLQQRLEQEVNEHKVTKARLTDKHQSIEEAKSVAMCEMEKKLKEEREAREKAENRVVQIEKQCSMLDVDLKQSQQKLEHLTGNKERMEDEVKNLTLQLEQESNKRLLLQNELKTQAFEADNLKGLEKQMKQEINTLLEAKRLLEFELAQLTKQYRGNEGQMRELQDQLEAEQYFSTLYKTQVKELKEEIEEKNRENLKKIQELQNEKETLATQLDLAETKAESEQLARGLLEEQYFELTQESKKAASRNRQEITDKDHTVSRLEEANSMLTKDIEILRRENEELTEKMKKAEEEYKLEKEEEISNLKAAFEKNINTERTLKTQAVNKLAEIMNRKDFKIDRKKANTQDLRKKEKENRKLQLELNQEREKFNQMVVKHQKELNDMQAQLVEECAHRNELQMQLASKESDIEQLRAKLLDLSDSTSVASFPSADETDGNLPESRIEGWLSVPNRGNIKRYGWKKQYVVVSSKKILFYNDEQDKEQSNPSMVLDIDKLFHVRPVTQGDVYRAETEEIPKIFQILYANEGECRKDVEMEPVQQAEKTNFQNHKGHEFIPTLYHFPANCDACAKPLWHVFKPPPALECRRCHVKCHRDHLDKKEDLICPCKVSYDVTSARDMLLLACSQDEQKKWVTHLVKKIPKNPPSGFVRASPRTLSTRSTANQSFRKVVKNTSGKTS
Rho kinase 2 (ROCK2), sequence (O75116 whole entry): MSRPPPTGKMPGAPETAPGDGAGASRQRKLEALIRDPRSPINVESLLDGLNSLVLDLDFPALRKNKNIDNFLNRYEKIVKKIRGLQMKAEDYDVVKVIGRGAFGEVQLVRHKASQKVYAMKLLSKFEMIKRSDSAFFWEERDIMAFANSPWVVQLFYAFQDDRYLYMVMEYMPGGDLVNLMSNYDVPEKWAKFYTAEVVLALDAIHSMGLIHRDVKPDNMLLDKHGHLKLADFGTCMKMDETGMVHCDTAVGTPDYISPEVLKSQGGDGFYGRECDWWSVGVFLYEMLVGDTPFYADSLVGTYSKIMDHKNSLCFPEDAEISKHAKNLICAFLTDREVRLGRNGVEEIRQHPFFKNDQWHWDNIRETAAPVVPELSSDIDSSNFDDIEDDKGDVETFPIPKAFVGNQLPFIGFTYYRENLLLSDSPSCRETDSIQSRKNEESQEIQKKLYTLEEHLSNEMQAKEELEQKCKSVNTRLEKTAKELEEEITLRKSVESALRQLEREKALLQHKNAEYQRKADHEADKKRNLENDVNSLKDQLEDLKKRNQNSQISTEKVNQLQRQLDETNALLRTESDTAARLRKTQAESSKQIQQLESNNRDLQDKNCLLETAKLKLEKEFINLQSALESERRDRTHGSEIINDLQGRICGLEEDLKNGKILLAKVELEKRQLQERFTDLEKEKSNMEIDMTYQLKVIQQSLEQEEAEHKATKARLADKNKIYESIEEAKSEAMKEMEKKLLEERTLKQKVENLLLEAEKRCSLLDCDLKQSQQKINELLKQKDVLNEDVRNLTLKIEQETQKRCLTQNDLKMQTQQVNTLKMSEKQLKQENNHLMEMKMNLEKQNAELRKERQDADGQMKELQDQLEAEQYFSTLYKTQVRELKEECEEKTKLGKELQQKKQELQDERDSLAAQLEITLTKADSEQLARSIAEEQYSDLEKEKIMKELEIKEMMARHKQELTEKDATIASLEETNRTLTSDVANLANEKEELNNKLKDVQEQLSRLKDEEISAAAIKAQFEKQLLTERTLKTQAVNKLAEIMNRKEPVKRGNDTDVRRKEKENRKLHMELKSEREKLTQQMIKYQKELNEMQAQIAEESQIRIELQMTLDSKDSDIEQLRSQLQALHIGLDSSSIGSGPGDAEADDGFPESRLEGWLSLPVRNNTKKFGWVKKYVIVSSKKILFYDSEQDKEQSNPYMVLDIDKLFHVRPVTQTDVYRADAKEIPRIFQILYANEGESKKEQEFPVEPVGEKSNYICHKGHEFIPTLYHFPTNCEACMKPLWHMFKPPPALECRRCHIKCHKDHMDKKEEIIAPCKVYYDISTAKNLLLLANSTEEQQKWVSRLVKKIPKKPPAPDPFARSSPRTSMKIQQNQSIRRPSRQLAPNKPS

In the case of `Cc1c[nH]c2nccc(Oc3cccc(CC(N)C(=O)N4CCN(C)CC4)c3)c12` (centres unmarked) [Example 1, 2-Amino-3-(3-((3-methyl-1H-pyrrolo[2,3-b]pyridin-4-yl)oxy)phenyl)-1-(4-methylpiperazin-1-yl)propan-1-one], the pKi in experiment [1] and in experiment [2] was 7.30 to 8.30 in each case.
With `COCCCNC(=O)C(N)Cc1cccc(Oc2ccnc3[nH]cc(C)c23)c1` (centres unmarked) [Example 2, 2-amino-N-(3-methoxypropyl)-3-(3-((3-methyl-1H-pyrrolo[2,3-b]pyridin-4-yl)oxy)phenyl)propanamide], the negative-log Ki (pKi) in experiment [1] and in experiment [2] was 7.30 to 8.30 throughout.
Take `Cc1c[nH]c2nccc(Oc3cccc(CC(N)C(=O)NCCCN(C)C)c3)c12` (centres unmarked) [Example 3, 2-amino-N-(3-(dimethylamino)propyl)-3-(3-((3-methyl-1H-pyrrolo[2,3-b]pyridin-4-yl)oxy)phenyl)propanamide]: the pKi in experiment [1] and in experiment [2] was less than 7.30 in each case.
With `Cc1c[nH]c2nccc(Oc3cccc(CC(N)C(=O)NCCc4ccncc4)c3)c12` (centres unmarked) [Example 4, 2-amino-3-(3-((3-methyl-1H-pyrrolo[2,3-b]pyridin-4-yl)oxy)phenyl)-N-(2-(pyridin-4-yl)ethyl)propanamide], the negative-log Ki (pKi) in experiment [1] and in experiment [2] was more than 8.30 throughout.
Regarding `Cc1c[nH]c2nccc(Oc3cccc(C(N)CC(=O)N4CCN(C)CC4)c3)c12` (centres unmarked) [Example 5, 3-amino-3-(3-((3-methyl-1H-pyrrolo[2,3-b]pyridin-4-yl)oxy)phenyl)-1-(4-methylpiperazin-1-yl)propan-1-one], the negative-log Ki (pKi) in experiment [1] and in experiment [2] was 7.30 to 8.30 in each case.
Take `COCCCNC(=O)CC(N)c1cccc(Oc2ccnc3[nH]cc(C)c23)c1` (centres unmarked) [Example 6, 3-amino-N-(3-methoxypropyl)-3-(3-((3-methyl-1H-pyrrolo[2,3-b]pyridin-4-yl)oxy)phenyl)propanamide]: the pKi in experiment [1] and in experiment [2] was 7.30 to 8.30 each time.
`Cc1c[nH]c2nccc(Oc3cccc(C(N)CC(=O)NCCc4ccncc4)c3)c12` (centres unmarked) [Example 7, 3-amino-3-(3-((3-methyl-1H-pyrrolo[2,3-b]pyridin-4-yl)oxy)phenyl)-N-(2-(pyridin-4-yl)ethyl)propanamide]: the pKi in experiment [1] and in experiment [2] was 7.30 to 8.30 in each case.
As to `Cc1c[nH]c2nccc(Oc3cccc(C(N)CC(=O)NCCCN(C)C)c3)c12` (centres unmarked) [Example 8, 3-amino-N-(3-(dimethylamino)propyl)-3-(3-((3-methyl-1H-pyrrolo[2,3-b]pyridin-4-yl)oxy)phenyl)propanamide], the pKi in experiment [1] and in experiment [2] was less than 7.30 throughout.
Take `Cc1c[nH]c2nccc(Oc3cccc(CC(CN)C(=O)N4CCN(C)CC4)c3)c12` (centres unmarked) [Example 9, 3-amino-2-(3-((3-methyl-1H-pyrrolo[2,3-b]pyridin-4-yl)oxy)benzyl)-1-(4-methylpiperazin-1-yl)propan-1-one]: the negative logarithm of the Ki (pKi) in experiment [1] and in experiment [2] was less than 7.30 throughout.
For `COCCCNC(=O)C(CN)Cc1cccc(Oc2ccnc3[nH]cc(C)c23)c1` (centres unmarked) [Example 10, 3-amino-N-(3-methoxypropyl)-2-(3-((3-methyl-1H-pyrrolo[2,3-b]pyridin-4-yl)oxy)benzyl)propanamide], the pKi in experiment [1] and in experiment [2] was 7.30 to 8.30 in each case.
`Cc1c[nH]c2nccc(Oc3cccc(CC(CN)C(=O)NCCc4ccncc4)c3)c12` (centres unmarked) [Example 11, 3-amino-2-(3-((3-methyl-1H-pyrrolo[2,3-b]pyridin-4-yl)oxy)benzyl)-N-(2-(pyridin-4-yl)ethyl)propanamide]: the pKi in experiment [1] and in experiment [2] was 7.30 to 8.30 in each case.
Take `Cc1c[nH]c2nccc(Oc3cccc(CC(CN)C(=O)NCCCN(C)C)c3)c12` (centres unmarked) [Example 12, 3-amino-N-(3-(dimethylamino)propyl)-2-(3-((3-methyl-1H-pyrrolo[2,3-b]pyridin-4-yl)oxy)benzyl)propanamide]: the negative logarithm of the Ki (pKi) in experiment [1] and in experiment [2] was less than 7.30 each time.
Take `Cc1c[nH]c2nccc(Oc3cccc(C(CN)CC(=O)NCCc4ccncc4)c3)c12` (centres unmarked) [Example 13, 4-Amino-3-(3-((3-methyl-1H-pyrrolo[2,3-b]pyridin-4-yl)oxy)phenyl)-N-(2-(pyridin-4-yl)ethyl)butanamide]: the pKi in experiment [1] and in experiment [2] was 7.30 to 8.30 each time.
For `COCCCNC(=O)CC(CN)c1cccc(Oc2ccnc3[nH]cc(C)c23)c1` (centres unmarked) [Example 14, 4-amino-N-(3-methoxypropyl)-3-(3-((3-methyl-1H-pyrrolo[2,3-b]pyridin-4-yl)oxy)phenyl)butanamide], the pKi in experiment [1] and in experiment [2] was 7.30 to 8.30 each time.
`Cc1c[nH]c2nccc(Oc3cccc(C(CN)CC(=O)NCCCN(C)C)c3)c12` (centres unmarked) [Example 15, 4-amino-N-(3-(dimethylamino)propyl)-3-(3-((3-methyl-1H-pyrrolo[2,3-b]pyridin-4-yl)oxy)phenyl)butanamide]: the pKi in experiment [1] and in experiment [2] was less than 7.30 throughout.
`Cc1c[nH]c2nccc(Oc3cccc(C(CN)CC(=O)N4CCN(C)CC4)c3)c12` (centres unmarked) [Example 16, 4-amino-3-(3-((3-methyl-1H-pyrrolo[2,3-b]pyridin-4-yl)oxy)phenyl)-1-(4-methylpiperazin-1-yl)butan-1-one]: the pKi in experiment [1] and in experiment [2] was 7.30 to 8.30 each time.
